Values joined by “and” are separate entries in the source; they are usually repeats but may differ in a detail not shown here. Equal values may be shown once. Values belong to the compound of their own block, whether it stands above or below them.
System: K24384-001-R-PDC complex spheroids, viability
Assay: Anticancer human tumor K24384-001-R-PDC patient-derived pancreatic adenocarcinoma cell line growth inhibition [GQUAD]
Conditions: for viability, T/C: stronger effect = lower value
Source text: DNA G-quadruplex Stabilizer Agents in Combinations in Complex Spheroids
A high-throughput screen of multi-cell type tumor spheroids was designed to identify active combinations of DNA G-quadruplex stabilizer agents and targeted small molecules. Complex spheroids include a stromal component modeled by human endothelial cells (HUVEC) and fibroblasts modeled by human mesenchymal stem cells (MSCs). The concentration ranges selected for each drug and investigational agent were based upon clinically achievable concentrations if the clinical Cmax of the agent was known.
Compounds. The drugs and investigational agents: pidnarulex (CX-5461; NSC782164), APTO-253 (NSC789042), BRACO-19 (NSC847499), peposertib (NSC802822), ceralasertib (NSC780249), elimusertib (NSC800525), camonsertib (NSC841442), AZD-1390 (NSC803789), olaparib (NSC753686), talazoparib (NSC767125), ART-558 (NSC835418), sotorasib (NSC818433), MRTX-1133 (NSC836407), SN-38 (NSC673596), topotecan (NSC609699), etoposide (NSC141540), doxorubicin (NSC123127), gemcitabine (NSC613327), 5-fluorouracil (NSC19893), paclitaxel (NSC125973), vemurafenib (NSC761431), panobinostat (NSC761190), R-306465 (JNJ-16241199; NSC773264), adavosertib (NSC754352), TP-3654 (NSC805149), carboplatin (NSC241240), KSQ-4279 (NSC840948), and staurosporine (NSC755774) were obtained from the National Cancer Institute (NCI) Developmental Therapeutics Program Chemical Repository (34). The FDA-approved anticancer drug set is available from the NCI Developmental Therapeutics Program. […] The stock solutions were prepared in dimethyl sulfoxide (DMSO, Sigma-Aldrich, St. Louis, MO, cat. D2650) at 800-fold the tested concentration and stored at -70 degrees C prior to their use. All drugs and investigational agents were tested over a range starting from a high concentration at or near the clinical Cmax and decreasing in half-log increments. If the clinical Cmax for an agent had not been determined, the highest concentration tested was 10 microM.
2.3 Cell Culture. All cells were maintained in an incubator at 37 degrees C and 5% CO2 with 95% humidity. The PDC lines were cultured according to standard operating procedures established by the NCI PDMR. All PDCs were thawed and cultured in Matrigel-coated flasks prepared with a working solution of 1X Ham's F-12 nutrient mix, without supplementation (Invitrogen, cat. 11765054), 100 U/mL penicillin-streptomycin (Invitrogen, cat. 15140122), and 2.5% Matrigel (Corning Inc., cat. 354248) for the first three passages. The 857933-349-R-J2-PDC line was cultured in 6C/Colon 1B media, which includes advanced DMEM/F-12 (Thermo Fisher Scientific, cat. 12634028), 10 mM HEPES (Thermo Fisher Scientific, cat. 15630080), 1X GlutaMAX supplement (Thermo Fisher Scientific, cat. 35050061), 0.1 mg/mL primocin (InvivoGen, cat. ant-pm-2), 10% defined fetal bovine serum, heat inactivated (HyClone Laboratories Inc., cat. SH30070.03HI), 50% L-WRN conditioned media (ATCC, cat. CRL-3276), 1.25 mM N-Acetyl-L-cysteine (Sigma-Aldrich, cat. A9165), 10 mM nicotinamide (Sigma-Aldrich, cat. N0636), 1X B-27 supplement (Thermo Fisher Scientific, cat. 17504044), 1X N-2 supplement (Thermo Fisher Scientific, cat. 17502048), 10 microM Y-27632 dihydrochloride (Tocris Bioscience, cat. 1254), and 50 ng/mL human EGF recombinant protein (Thermo Fisher Scientific, cat. PHG0311). The 485176-168-R4-J1-PDC line was cultured in Panc media, which includes all 6C/Colon 1B media components plus 100 ng/mL human FGF-10 (Thermo Fisher Scientific, cat. 100-26), 500 nM SB-431542 (Selleckchem, cat. S1067), and gastrin (Tocris, cat. 3006).
[…]

[1] = curve of first compound, second compound 0.0316 µM
[2] = curve of first compound, second compound 0.1 µM
[3] = curve of first compound, second compound 0.316 µM
[4] = curve of first compound, second compound 1 µM
[5] = curve of first compound, second compound 3.16 µM
[6] = curve of first compound, second compound 10 µM
[7] = second compound 0.0316 µM, first compound 0.0316 µM
[8] = second compound 0.0316 µM, first compound 0.1 µM
[9] = second compound 0.0316 µM, first compound 0.316 µM
[10] = second compound 0.0316 µM, first compound 1 µM
[11] = second compound 0.0316 µM, first compound 3.16 µM
[12] = second compound 0.0316 µM, first compound 10 µM
[13] = second compound 0.1 µM, first compound 0.0316 µM
[14] = second compound 0.1 µM, first compound 0.1 µM
[15] = second compound 0.1 µM, first compound 0.316 µM
[16] = second compound 0.1 µM, first compound 1 µM
[17] = second compound 0.1 µM, first compound 3.16 µM
[18] = second compound 0.1 µM, first compound 10 µM
[19] = second compound 0.316 µM, first compound 0.0316 µM
[20] = second compound 0.316 µM, first compound 0.1 µM
[21] = second compound 0.316 µM, first compound 0.316 µM
[22] = second compound 0.316 µM, first compound 1 µM
[23] = second compound 0.316 µM, first compound 3.16 µM
[24] = second compound 0.316 µM, first compound 10 µM
[25] = second compound 1 µM, first compound 0.0316 µM
[26] = second compound 1 µM, first compound 0.1 µM
[27] = second compound 1 µM, first compound 0.316 µM
[28] = second compound 1 µM, first compound 1 µM
[29] = second compound 1 µM, first compound 3.16 µM
[30] = second compound 1 µM, first compound 10 µM
[31] = second compound 3.16 µM, first compound 0.0316 µM
[32] = second compound 3.16 µM, first compound 0.1 µM
[33] = second compound 3.16 µM, first compound 0.316 µM
[34] = second compound 3.16 µM, first compound 1 µM
[35] = second compound 3.16 µM, first compound 3.16 µM
[36] = second compound 3.16 µM, first compound 10 µM
[37] = second compound 10 µM, first compound 0.0316 µM
[38] = second compound 10 µM, first compound 0.1 µM
[39] = second compound 10 µM, first compound 0.316 µM
[40] = second compound 10 µM, first compound 1 µM
[41] = second compound 10 µM, first compound 3.16 µM
[42] = second compound 10 µM, first compound 10 µM
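Also: spheroids exposed to compounds for seven days.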

- IC50 (curve of compound): 12.8 nM and 4.92 nM and 15.7 nM
SMILES: CCc1c2c(nc3ccc(O)cc13)-c1cc3c(c(=O)n1C2)COC(=O)[C@]3(O)CC
- viability, T/C (compound 0.000999 µM): 99.6% and 68.6% and 79.3%
- viability, T/C (compound 0.00316 µM): 52.9% and 58% and 61.9%
- viability, T/C (compound 0.00999 µM): 65.9% and 39.2% and 63.5%
- viability, T/C (compound 0.0316 µM): 43.4% and 33% and 29.1%
- viability, T/C (compound 0.0999 µM): 27.3% and 38% and 31.1%
- viability, T/C (compound 0.316 µM): 24.3% (2×) and 23.9%

- IC50 [1]: 877 nM
- IC50 [2]: > 10000 nM
- IC50 [3]: < 31.6 nM
- IC50 [4]: < 31.6 nM
- IC50 [5]: < 31.6 nM
- IC50 [6]: < 31.6 nM
SMILES: O=c1[nH]cc(F)c(=O)[nH]1 + Cc1cnc(CNC(=O)c2c(=O)c3ccc(N4CCCN(C)CC4)nc3n3c2sc2ccccc23)cn1
- viability, T/C [7]: 78.1%
- viability, T/C [8]: 90.8%
- viability, T/C [9]: 78.9%
- viability, T/C [10]: 45.7%
- viability, T/C [11]: 53.1%
- viability, T/C [12]: 40%
- viability, T/C [13]: 55.8%
- viability, T/C [14]: 68.3%
- viability, T/C [15]: 69.5%
- viability, T/C [16]: 50.9%
- viability, T/C [17]: 70.9%
- viability, T/C [18]: 50.4%
- viability, T/C [19]: 45.7%
- viability, T/C [20]: 47.3%
- viability, T/C [21]: 51.7%
- viability, T/C [22]: 41.8%
- viability, T/C [23]: 48.2%
- viability, T/C [24]: 47%
- viability, T/C [25]: 35.9%
- viability, T/C [26]: 46.4%
- viability, T/C [27]: 41.9%
- viability, T/C [28]: 48.6%
- viability, T/C [29]: 53.9%
- viability, T/C [30]: 38.2%
- viability, T/C [31]: 33.3%
- viability, T/C [32]: 37%
- viability, T/C [33]: 37.1%
- viability, T/C [34]: 49.7%
- viability, T/C [35]: 47.1%
- viability, T/C [36]: 34%
- viability, T/C [37]: 28.3%
- viability, T/C [38]: 25.2%
- viability, T/C [39]: 30.6%
- viability, T/C [40]: 35.4%
- viability, T/C [41]: 19.8%
- viability, T/C [42]: 23.1%

- IC50 (curve of compound): 285 nM and 108 nM and 531 nM
SMILES: Nc1ccn(C2OC(CO)C(O)C2(F)F)c(=O)n1 (stereo not drawn)
- viability, T/C (compound 0.0316 µM): 84.3% and 75.7% and 81.2%
- viability, T/C (compound 0.1 µM): 63.9% and 51.3% and 63.6%
- viability, T/C (compound 0.316 µM): 50% and 35.2% and 65.7%
- viability, T/C (compound 1 µM): 34.6% and 28.7% and 32.3%
- viability, T/C (compound 3.16 µM): 21.7% and 26.4% and 21.4%
- viability, T/C (compound 10 µM): 15.8% and 21.2% and 19.7%

SMILES: C=CCn1c(=O)c2cnc(Nc3ccc(N4CCN(C)CC4)cc3)nc2n1-c1cccc(C(C)(C)O)n1 + CN(C)c1ccc(Nc2c3ccc(NC(=O)CCN4CCCC4)cc3nc3cc(NC(=O)CCN4CCCC4)ccc23)cc1
- IC50 [1]: 392 nM
- IC50 [2]: 266 nM
- IC50 [3]: 236 nM
- IC50 [4]: 275 nM
- IC50 [5]: 235 nM
- IC50 [6]: 229 nM
- viability, T/C [7]: 85.5%
- viability, T/C [8]: 81%
- viability, T/C [9]: 57.3%
- viability, T/C [10]: 18%
- viability, T/C [11]: 15.9%
- viability, T/C [12]: 17.9%
- viability, T/C [13]: 76.2%
- viability, T/C [14]: 68.9%
- viability, T/C [15]: 47%
- viability, T/C [16]: 15.6%
- viability, T/C [17]: 14%
- viability, T/C [18]: 14.8%
- viability, T/C [19]: 80.2%
- viability, T/C [20]: 86.7%
- viability, T/C [21]: 38.6%
- viability, T/C [22]: 16.3%
- viability, T/C [23]: 12%
- viability, T/C [24]: 14.5%
- viability, T/C [25]: 76.7%
- viability, T/C [26]: 83.3%
- viability, T/C [27]: 45.9%
- viability, T/C [28]: 19.1%
- viability, T/C [29]: 12.2%
- viability, T/C [30]: 18%
- viability, T/C [31]: 84.2%
- viability, T/C [32]: 80.3%
- viability, T/C [33]: 39.3%
- viability, T/C [34]: 19.3%
- viability, T/C [35]: 16.3%
- viability, T/C [36]: 13.6%
- viability, T/C [37]: 63.5%
- viability, T/C [38]: 64.8%
- viability, T/C [39]: 44.5%
- viability, T/C [40]: 20%
- viability, T/C [41]: 16.9%
- viability, T/C [42]: 13.1%

From PubChem BioAssay AID2060483 (Molecular Pharmacology Branch, DTP, NCI, 2025)
